From patent US20130053337A1, “GUANIDINYLATED AMINOGLYCOSIDE-LIPID CONJUGATES” (UNIVERSITY OF MANITOBA, priority 2010, published 2013)
Converted amounts (≈) assume the structure as drawn. Where two headings read alike, the source gives them in different places.

Tests used:
[1] = system: MRSE CAN-ICU 61589; assay: MIC, broth macrodilution (CLSI); type: cell-based, methicillin-resistant Staphylococcus epidermidis
Description: (§1) All experiments were performed in duplicate.
(§2) Bacterial isolates studied included both reference strains obtained from the American Type Culture Collection (ATCC) as well as clinical strains obtained from the CAN-ICU study which was a national surveillance study assessing the prevalence of antimicrobial resistant pathogens in Canadian intensive care units (Zhanel et al., 2008). Isolates were kept frozen in skim milk at −80° C. until minimum inhibitory concentration (MIC) testing was carried out. Following two subcultures from frozen stock, the in vitro activities of peptides were determined by macrobroth dilution in accordance with the Clinical and Laboratory Standards Institute (CLSI) 2006 guidelines (Zhanel et al., 2008). Stock solutions of peptides were prepared and dilutions made as described by CLSI. Test tubes contained doubling antimicrobial dilutions of cation adjusted Mueller-Hinton broth and inoculated to achieve a final concentration of approximately 5×10^5 cfu/ml then incubated in ambient air for 24 hours prior to reading. Colony counts were performed periodically to confirm inocula. Quality control was regularly performed using ATCC QC organisms.

[2] = system: E. coli (amikacin MIC 32 mg/L) CAN-ICU 63074; assay: MIC, broth macrodilution (CLSI); type: cell-based; settings: E. coli CAN-ICU 63074
Description: as §1, §2

[3] = system: E. coli ATCC 25922; assay: MIC, broth macrodilution (CLSI); type: cell-based; settings: E. coli ATCC25922
Description: as §1, §2

[4] = system: P. aeruginosa (gentamicin-resistant) CAN-ICU 62308; assay: MIC, broth macrodilution (CLSI); type: cell-based; settings: P. aeruginosa CAN-ICU 62308
Description: as §1, §2

[5] = system: P. aeruginosa ATCC 27853; assay: MIC, broth macrodilution (CLSI); type: cell-based; settings: P. aeruginosa ATCC27853
Description: as §1, §2

[6] = system: E. coli (gentamicin-resistant) CAN-ICU 61714; assay: MIC, broth macrodilution (CLSI); type: cell-based; settings: E. coli CAN-ICU 61714
Description: as §1, §2

[7] = system: S. aureus ATCC 29213; assay: MIC, broth macrodilution (CLSI); type: cell-based, Staphylococcus aureus; settings: S. aureus ATCC29213
Description: as §1, §2

[8] = system: MRSA ATCC 33592; assay: MIC, broth macrodilution (CLSI); type: cell-based, methicillin-resistant Staphylococcus aureus; settings: MRSA ATCC33592
Description: as §1, §2

[9] = system: S. pneumoniae ATCC 49619; assay: MIC, broth macrodilution (CLSI), broth with 5% laked horse blood; type: cell-based, Streptococcus pneumoniae; settings: S. pneumoniae ATCC49619
Description: as §1, §2

[10] = system: S. epidermidis ATCC 14990; assay: MIC, broth macrodilution (CLSI); type: cell-based, Staphylococcus epidermidis; settings: S. epidermidis ATCC14990
Description: as §1, §2

[11] = system: E. faecium ATCC 27270; assay: MIC, broth macrodilution (CLSI); type: cell-based, Enterococcus faecium; settings: E. facium ATCC27270
Description: as §1, §2

[12] = system: E. faecalis ATCC 29212; assay: MIC, broth macrodilution (CLSI); type: cell-based, Enterococcus faecalis; settings: E. faecalis ATCC29212
Description: as §1, §2

[13] = system: sheep red blood cell (erythrocytes); assay: Hemolytic assay (in vitro toxicity)
Description: Antibacterial activity against Gram-positive and Gram-negative microorganisms was tested via broth macrodilution tests using CLSI methodology (Zhanel et al., 2008). Stock solutions of cationic lipids in water were brought to a concentration of 512 mg/L. Organisms were subcultured and isolated on blood agar, suspended in 3 mL of Mueller-Hinton broth at the turbidity of a […], and diluted to approximately 10^5 cfu/mL before introduction into tubes containing serially diluted lipopeptide antibiotic in Mueller-Hinton broth. Activity testing against S. pneumoniae used broth supplemented with laked horse blood to give 5% horse blood in experimental tubes. Turbidity of lipopeptide solution in broth required creation of control tubes lacking organisms serving as turbidity controls. All tubes were incubated overnight for 16-20 h at 37° C. […] All experiments were performed in duplicate. In-vitro toxicity was determined using a sheep red blood cell hemolytic assay as previously described (Dathe et al., 1996).
In vitro toxicity was determined using a sheep red blood cell (erythrocytes) hemolytic assay (Dathe et al., 1996). […] Erythrocytes were washed and resuspended in Tris buffered saline. The cell suspension was combined with varying concentrations (low to very high) of test and control antimicrobials (e.g., aminoglycosides and APTCs). The samples were centrifuged and the absorbance of the supernatants measured at 540 nm. Tris buffered saline and Triton X were used as negative and positive controls, respectively. The toxicity was assessed by percent hemolysis.

[14] = 100 mg/L, sheep erythrocytes, percent hemolysis

SMILES	MIC [1]	MIC [2]	MIC [3]	MIC [4]	MIC [5]	MIC [6]	MIC [7]	MIC [8]	MIC [9]	MIC [10]	MIC [11]	MIC [12]	hemolytic activity at 100 mg/L [13, 14]	hemolytic activity compared to polyamine analogs 3 and 15 [13]	hemolytic activity at 100 mg/L [13]
CCCCCCCCCCCC(=O)NC[C@H]1O[C@@H](O[C@@H]2[C@@H](O)[C@H](N)C[C@H](N)[C@H]2O[C@H]2O[C@H](CN)[C@@H](O)[C@H](O)[C@H]2N)[C@H](O)[C@@H]1O[C@H]1O[C@@H](CN)[C@@H](O)[C@H](O)[C@H]1N.O=C(O)C(F)(F)F.O=C(O)C(F)(F)F.O=C(O)C(F)(F)F.O=C(O)C(F)(F)F.O=C(O)C(F)(F)F.O=C(O)C(F)(F)F [Compound 2]	8 µg/mL	128 µg/mL	64 µg/mL	256 µg/mL	256 µg/mL	64 µg/mL	32 µg/mL	>256 µg/mL	128 µg/mL	4 µg/mL					
C[C@H](CCC(=O)NC[C@H]1O[C@@H](O[C@@H]2[C@@H](O)[C@H](N)C[C@H](N)[C@H]2O[C@H]2O[C@H](CN)[C@@H](O)[C@H](O)[C@H]2N)[C@H](O)[C@@H]1O[C@H]1O[C@@H](CN)[C@@H](O)[C@H](O)[C@H]1N)[C@H]1CC[C@H]2[C@@H]3[C@H](O)C[C@@H]4C[C@H](O)CC[C@]4(C)[C@H]3C[C@H](O)[C@]12C.O=C(O)C(F)(F)F.O=C(O)C(F)(F)F.O=C(O)C(F)(F)F.O=C(O)C(F)(F)F.O=C(O)C(F)(F)F.O=C(O)C(F)(F)F [Compound 7]	16 µg/mL	64 µg/mL	32 µg/mL	128 µg/mL	>256 µg/mL	64 µg/mL	16 µg/mL	128 µg/mL	>256 µg/mL	8 µg/mL					
CCCCC/C=C\C/C=C\CCCCCCCC(=O)NCC1OC(OC2C(O)C(NC(=N)N)CC(NC(=N)N)C2OC2OC(CNC(=N)N)C(O)C(O)C2NC(=N)N)C(O)C1OC1OC(CNC(=N)N)C(O)C(O)C1NC(=N)N.O=C(O)C(F)(F)F.O=C(O)C(F)(F)F.O=C(O)C(F)(F)F.O=C(O)C(F)(F)F.O=C(O)C(F)(F)F.O=C(O)C(F)(F)F (centres unmarked) [Compound 12, 1,3,2′,6′,2′″,6′″-Hexaammonium-guanidinyl-5″-deoxy-5″-N-(9Z,12Z,octadeca-di-ene-oyl)-neomycin hexakis(trifluoroacetate)]	8 µg/mL	64 µg/mL	64 µg/mL	64 µg/mL	128 µg/mL	128 µg/mL	8 µg/mL	16 µg/mL	128 µg/mL	4 µg/mL	64 µg/mL	64 µg/mL	1%		
CCCCC/C=C\C/C=C\CCCCCCCC(=O)NC[C@H]1O[C@@H](O[C@@H]2[C@@H](O)[C@H](N)C[C@H](N)[C@H]2O[C@H]2O[C@H](CN)[C@@H](O)[C@H](O)[C@H]2N)[C@H](O)[C@@H]1O[C@H]1O[C@@H](CN)[C@@H](O)[C@H](O)[C@H]1N.O=C(O)C(F)(F)F.O=C(O)C(F)(F)F.O=C(O)C(F)(F)F.O=C(O)C(F)(F)F.O=C(O)C(F)(F)F.O=C(O)C(F)(F)F [Compound 5]	4 µg/mL	128 µg/mL	128 µg/mL	128 µg/mL	256 µg/mL	64 µg/mL	16 µg/mL	32 µg/mL	128 µg/mL	4 µg/mL					
CC(C)c1cc(C(C)C)c(S(=O)(=O)OCC2OC(OC3C(NC(=O)OC(C)(C)C)CC(NC(=O)OC(C)(C)C)C(OC4OC(CNC(=O)OC(C)(C)C)C(O)C(O)C4O)C3O)C(O)C(NC(=O)OC(C)(C)C)C2O)c(C(C)C)c1 (centres unmarked) [Compound 17, 6″-(2,4,6-Triisopropylbenzenesulfonyl)-1,3,6′,3″-tetra-N-(tert-butoxycarbonyl)kanamycin A]														reduced hemolytic activity	
NC[C@H]1O[C@H](O[C@H]2[C@H](O)[C@@H](O[C@H]3O[C@H](CO)[C@@H](O)[C@H](N)[C@H]3O)[C@H](N)C[C@@H]2N)[C@H](O)[C@@H](O)[C@@H]1O [Kanamycin A, reference compound]	128 µg/mL (≈ 264 µM)	32 µg/mL (≈ 66 µM)	8 µg/mL (≈ 16.5 µM)	>512 µg/mL	>512 µg/mL	16 µg/mL (≈ 33 µM)	4 µg/mL (≈ 8.26 µM)	>512 µg/mL	8 µg/mL (≈ 16.5 µM)	2 µg/mL (≈ 4.13 µM)			<0.4%		
CCCCCC(=O)NCC1OC(OC2C(O)C(NC(=N)N)CC(NC(=N)N)C2OC2OC(CNC(=N)N)C(O)C(O)C2NC(=N)N)C(O)C1OC1OC(CNC(=N)N)C(O)C(O)C1NC(=N)N.O=C(O)C(F)(F)F.O=C(O)C(F)(F)F.O=C(O)C(F)(F)F.O=C(O)C(F)(F)F.O=C(O)C(F)(F)F.O=C(O)C(F)(F)F (centres unmarked) [Compound 8, 1,3,2′,6′,2′″,6′″-Hexaammonium-guanidinyl-5″-deoxy-5″-N-(hexanoyl)-neomycin hexakis(trifluoroacetate)]	64 µg/mL		128 µg/mL				128 µg/mL		>128 µg/mL	64 µg/mL	256 µg/mL				
CCCCCCCCCCCCCCCC(=O)NC[C@H]1O[C@@H](O[C@@H]2[C@@H](O)[C@H](N)C[C@H](N)[C@H]2O[C@H]2O[C@H](CN)[C@@H](O)[C@H](O)[C@H]2N)[C@H](O)[C@@H]1O[C@H]1O[C@@H](CN)[C@@H](O)[C@H](O)[C@H]1N.O=C(O)C(F)(F)F.O=C(O)C(F)(F)F.O=C(O)C(F)(F)F.O=C(O)C(F)(F)F.O=C(O)C(F)(F)F.O=C(O)C(F)(F)F [Compound 3]	2 µg/mL		32 µg/mL	128 µg/mL	128 µg/mL	64 µg/mL	4 µg/mL	8 µg/mL	64 µg/mL	2 µg/mL					56%
CCCCCCCCCCCCCCCCCCCC(=O)NC[C@H]1O[C@@H](O[C@@H]2[C@@H](O)[C@H](N)C[C@H](N)[C@H]2O[C@H]2O[C@H](CN)[C@@H](O)[C@H](O)[C@H]2N)[C@H](O)[C@@H]1O[C@H]1O[C@@H](CN)[C@@H](O)[C@H](O)[C@H]1N.O=C(O)C(F)(F)F.O=C(O)C(F)(F)F.O=C(O)C(F)(F)F.O=C(O)C(F)(F)F.O=C(O)C(F)(F)F.O=C(O)C(F)(F)F [Compound 4]	4 µg/mL	64 µg/mL	128 µg/mL	64 µg/mL	128 µg/mL	128 µg/mL	8 µg/mL	8 µg/mL	64 µg/mL	4 µg/mL					82%
NC[C@@H]1O[C@H](O[C@H]2[C@@H](O)[C@H](O[C@@H]3[C@@H](O)[C@H](N)C[C@H](N)[C@H]3O[C@H]3O[C@H](CN)[C@@H](O)[C@H](O)[C@H]3N)O[C@@H]2CNC(=O)CCCc2ccc3ccc4cccc5ccc2c3c45)[C@H](N)[C@@H](O)[C@@H]1O.O=C(O)C(F)(F)F.O=C(O)C(F)(F)F.O=C(O)C(F)(F)F.O=C(O)C(F)(F)F.O=C(O)C(F)(F)F.O=C(O)C(F)(F)F [Compound 6]	64 µg/mL	64 µg/mL	32 µg/mL	256 µg/mL	>512 µg/mL	64 µg/mL	16 µg/mL	256 µg/mL	>512 µg/mL	2 µg/mL					
